Results published in US9586914B2, “Modulators of C3a receptors” (THE UNIVERSITY OF QUEENSLAND, priority 2011, dated 2017).
Read-outs that look alike come from different tables or passages of the source.

Columns and labels:
C3a receptor (C3aR) = target: T1, C3a receptor (C3aR) (Homo sapiens, UniProt Q16581); test: Competitive binding with [^125I]-C3a in HMDM; details: for remaining activity at 20 µM: 1 h, read-out: %[^125I]-C3a binding
T1 construct: peripheral blood mononuclear cells were isolated from buffy coat (obtained from Australian Red Cross Blood Service, Kelvin Grove); endogenous in cells; host or cells: primary human monocyte-derived macrophages (HMDM) differentiated from CD14+ monocytes of donor buffy coat
T1 sequence (Q16581 1-482): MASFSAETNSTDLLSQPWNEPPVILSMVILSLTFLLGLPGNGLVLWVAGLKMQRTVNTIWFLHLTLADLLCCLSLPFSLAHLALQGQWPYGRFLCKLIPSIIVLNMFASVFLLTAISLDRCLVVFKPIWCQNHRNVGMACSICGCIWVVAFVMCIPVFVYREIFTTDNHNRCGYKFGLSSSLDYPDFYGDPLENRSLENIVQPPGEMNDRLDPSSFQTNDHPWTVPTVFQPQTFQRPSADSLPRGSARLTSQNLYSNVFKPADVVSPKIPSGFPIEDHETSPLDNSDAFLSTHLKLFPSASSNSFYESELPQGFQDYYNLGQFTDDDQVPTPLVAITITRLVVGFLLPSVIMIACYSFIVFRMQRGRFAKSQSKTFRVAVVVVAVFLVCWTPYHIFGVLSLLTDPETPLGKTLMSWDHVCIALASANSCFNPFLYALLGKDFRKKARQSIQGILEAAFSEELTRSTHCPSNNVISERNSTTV
From the text: For HMDM, peripheral blood mononuclear cells were isolated from buffy coat (obtained from Australian Red Cross Blood Service, Kelvin Grove) using Ficoll-paque density centrifugation (GE Healthcare Bio-Science, Uppsala, Sweden). CD^14+ monocytes were positively selected using CD^14+ MACS magnetic beads (Miltenyi Biotech, Auburn, Calif., USA). […] Cells were harvested by gentle scraping in saline solution and replated for use on Day 7. […] Unbound radioactivity was removed by filtration through glass microfiber filters GF/B (Whatman Iner. […] The filter was washed 3 times with cold buffer (50 mM Tris-HCl) pH 7.4. […] The −log IC50 for each compound was calculated for separate experiments and express as an arithmetic mean standard error (SE). IC50 values were expressed as a geometric mean.

C3aR = target: T2, C3aR (Homo sapiens, UniProt Q16581); test: Calcium mobilization assay in HMDM (agonist/antagonist activity); assay type: cell-based; details: for Emax at 10 µM: read-out: % agonist
T2 construct: peripheral blood mononuclear cells were isolated from buffy coat (obtained from Australian Red Cross Blood Service, Kelvin Grove); endogenous in cells; host or cells: primary human monocyte-derived macrophages (HMDM) differentiated from CD14+ monocytes of donor buffy coat
T2 sequence (Q16581 1-482): T1 sequence (Q16581 1-482)
Method: Harvested HMDM cells were washed with 0.9% NaCl solution by centrifugation at 2500 rpm for 5 min, followed by resuspension of the cell pellet with complete media. Cells were seeded at 5×10^4 cells/well in a 96-well black-wall, clear bottom plate (DKSH, Zurich), and left overnight to adhere at 37° C. On the day of the experiment, supernatant was removed and cells were incubated in dye loading buffer (Hank's Balanced Salt Solution (HBSS) with 4 μM Fluo-3, 25 μL pluronic acid, 1% fetal bovine serum (FBS) and 2.5 mM probenecid) for one hour at 37° C. Cells were then washed twice with HBSS and transferred to a Fluorostar spectrofluorimeter (BMG, Durham N.C.) for oxazole compound injection and fluorescence measurements.
Various compounds were examined in the calcium mobilization assay for agonist or antagonist activity compared to hC3a and to the known antagonist SB290157.
HMDMs were seeded into black-wall, clear bottom 96-well plates (Corning Incorporated, NY) at 50,000 cells/well and left to incubate at 37° C. with 5% CO2 overnight for cells to adhere. The medium was removed before being washed with the assay buffer (1×HBSS, 20 mM HEPES, 2.5 mM probenecid, pH 7.4). To each well was added 100 μL of dye-loading buffer made up of 12 mL calcium buffer, 1% FBS, 25 μL of Fluo-3 dye (final concentration of 4 μM) and 25 μL of 20% pluronic acid. The plate was covered in aluminium foil to protect the light-sensitive dye and left to incubate at 37° C. for 1 h. The dye-loading buffer was removed before the cells were washed with the assay buffer to remove excess loading dye. To each well was added 50 μL of fresh assay buffer before the plate was loaded into a FLIPR (Fluorescent Imaging Plate Reader) that can inject treatments and measure any calcium release. To generate agonist plots, calcium release was monitored for 300 seconds. To generate antagonist plots, calcium release was recorded for 900 seconds, which at the same time would allow incubation for the antagonists. After the initial incubation period, an agonist would be added and the response was recorded for 300 seconds. Intracellular release of calcium was recorded via fluorescence measurements at wavelength of 485 nm for excitation and 520 nm for emission.

[1] = Table 6, competitive binding with [^125I]-C3a, HMDM
[2] = Table 6, competitive binding with [^125I]-C3a, HMDM, read-out: IC50 (converted)
[3] = Table 9, Ca^2+ mobilization, HMDM
[4] = Table 9, Ca^2+ mobilization, HMDM, read-out: EC50
[5] = Table 8, HMDM, read-out: Receptor Binding Affinity ^125I IC50
[6] = Table 10, HMDM, read-out: Antagonist Activity Ca^2+ IC50
[7] = Table 14, binding affinity for C3aR on HMDM
[8] = Table 6, competitive binding with [^125I]-C3a, HMDM, read-out: pIC50 ± SEM (converted)
[9] = Table 12, read-out: Apparent Agonist Activity EC50
[10] = Table 13, calcium release from HMDM, read-out: Antagonist Activity IC50
[11] = Table 12, read-out: Receptor Binding Affinity IC50

CC[C@H](C)[C@H](NC(=O)C1CCCc2ccccc21)c1nc(C(=O)N[C@@H](CCCNC(=N)N)C(=O)O)co1 (stereo partly drawn) [Compound 21, Tetrahydronapthalene-isoleucine-oxazole-arginine-OH]
pIC50 ± SEM (C3a receptor (C3aR); [1]): 6.98 ± 0.11
IC50 (C3a receptor (C3aR); [2]): 104 nM
pEC50 ± SEM (C3aR; [3]): 6.62 ± 0.28
EC50 (C3aR; [4]): 240 nM

Cc1oc([C@H](CC(C)C)NC(=O)Cc2ccc(/N=N/c3ccccc3)cc2)nc1C(=O)N[C@@H](CCCNC(=N)N)C(=O)O [Compound 47, Phenyl hydrazine-Benzeneacetic acid-Leucine-5-Methyl-Oxazole-Arginine]
remaining activity at 20 µM (C3a receptor (C3aR)): 49%
Emax at 10 µM (C3aR): 48%

Cc1oc([C@H](CC(C)C)NC(=O)C2CCCCC2)nc1C(=O)N[C@@H](CCCNC(=N)N)C(=O)O [Compound 32, Cyclohexane carboxylic acid-Leucine-5-Methyl-Oxazole-Arginine]
remaining activity at 20 µM (C3a receptor (C3aR)): 39%
Emax at 10 µM (C3aR): 107%

CC[C@H](C)[C@H](NC(=O)C(c1ccccc1)c1ccccc1)c1nc(C(=O)N[C@@H](CCCNC(=N)N)C(=O)O)co1 [Compound 7, Diphenyl Acetic Acid Isoleucine Oxazole Arginine]
pIC50 ± SEM (C3a receptor (C3aR); [1]): 6.86 ± 0.08
IC50 (C3a receptor (C3aR); [2]): 137 nM
pEC50 ± SEM (C3aR; [3]): 5.25 ± 0.31
EC50 (C3aR; [4]): 5600 nM

N=C(N)NCCC[C@H](NC(=O)c1noc(C(c2ccccc2)c2ccccc2)n1)C(=O)O [Compound 68, 5-Diphenylmethyl-1-oxa-2,4-diazole-3-carboxyl-Arginine-OH]
IC50 (C3a receptor (C3aR); [5]): 447 nM
IC50 (C3aR; [6]): 1200 nM

Cc1oc([C@H](CC(C)C)NC(=O)c2cccnc2)nc1C(=O)N[C@@H](CCCNC(=N)N)C(=O)O [Compound 30]
remaining activity at 20 µM (C3a receptor (C3aR)): 29%
Emax at 10 µM (C3aR): 68%

CC(C)C[C@H](NC(=O)CC(c1ccccc1)c1ccccc1)c1nc(C(=O)N[C@@H](CCCNC(=N)N)C(=O)O)co1 [Compound 19, 3,3-diphenylpropanoic acid-Leucine-Oxazole-Arginine-OH]
IC50 (C3a receptor (C3aR); [2]): 754 nM
EC50 (C3aR; [4]): 744 nM

Cc1[nH]c([C@H](CC(C)C)NC(=O)OC(C)(C)C)nc1C(=O)N[C@@H](CCCNC(=N)N)C(=O)O [Compound 80, Boc-Leucine-imidazole-Arginine-OH]
IC50 (C3a receptor (C3aR); [2]): 38 nM
EC50 (C3aR; [4]): 120 nM

CC(C)(C)OC(=O)N[C@@H](CC1CCCCC1)c1nc(C(=O)N[C@@H](CCCNC(=N)N)C(=O)O)co1 [Compound 5, Boc-L-Cyclohexylalanine-Oxazole-Arg]
IC50 (C3a receptor (C3aR); [2]): 82 nM
EC50 (C3aR; [4]): 135 nM

Cc1oc([C@H](CC(C)C)NC(=O)c2cncc(Br)c2)nc1C(=O)N[C@@H](CCCNC(=N)N)C(=O)O [Compound 48, 5-Bromonicotinic acid-Leucine-5-Methyl-Oxazole-Arginine]
remaining activity at 20 µM (C3a receptor (C3aR)): 32%
Emax at 10 µM (C3aR): 68%

CC[C@H](C)[C@H](NC(=O)c1cncc(Br)c1)c1nc(C(=O)N[C@@H](CCCNC(=N)N)C(=O)O)co1 [Compound 20]
pIC50 ± SEM (C3a receptor (C3aR); [1]): 8.30 ± 0.10
IC50 (C3a receptor (C3aR); [2]): 5 nM
pEC50 ± SEM (C3aR; [3]): 7.76 ± 0.36
EC50 (C3aR; [4]): 17 nM

N=C(N)NCCC[C@H](NC(=O)c1sc(C(c2ccccc2)c2ccccc2)nc1-c1ccccc1)C(=O)O [Compound 65, 2-Diphenylmethyl-4-phenyl thiazole-5-carboxyl-Arg-OH]
IC50 (C3a receptor (C3aR); [5]): 3370 nM
IC50 (C3aR; [6]): 67000 nM

Cc1oc([C@H](CC(C)C)NC(=O)Cc2ccc(C(F)(F)F)cc2)nc1C(=O)N[C@@H](CCCNC(=N)N)C(=O)O [Compound 36, 4-(Trifluoromethyl)-phenylacetic acid-Leucine-5-Methyl-Oxazole-Arginine]
remaining activity at 20 µM (C3a receptor (C3aR)): 61%
Emax at 10 µM (C3aR): 50%

Cc1oc(C(c2ccccc2)c2ccccc2)nc1C(=O)N[C@@H](CCCNC(=N)N)C(=O)O [Compound 61, 2-Diphenylmethyl-5-methyl oxazole-4-carboxyl-Arg-OH]
IC50 (C3a receptor (C3aR); [5]): 740 nM
-Log IC50 (C3a receptor (C3aR); [7]): 8.0
Agonist Activity (in words) (C3aR; Table 10, HMDM): partial agonist
IC50 (C3aR; [6]): 30 nM

Cc1oc([C@H](CC(C)C)NC(=O)c2cc3ccccc3o2)nc1C(=O)N[C@@H](CCCNC(=N)N)C(=O)O [Compound 26, Benzofuran carboxylic acid-Leucine-5-Methyl-Oxazole-Arginine]
remaining activity at 20 µM (C3a receptor (C3aR)): 19%
Emax at 10 µM (C3aR): 84%

N=C(N)NCCC[C@H](NC(=O)c1coc(C(c2ccccc2)c2ccccc2)n1)C(=O)O [Compound 56, 2-Diphenylmethyl-oxazole-4-carboxyl-Arg-OH]
IC50 (C3a receptor (C3aR); [2]): 37 nM
IC50 (C3a receptor (C3aR); [8]): 37.2 nM
IC50 (C3a receptor (C3aR); [5]): 1 nM
IC50 (C3a receptor (C3aR); Table 12, read-out: Receptor Binding Affinity pIC50 ± SE (converted)): 37.2 nM
EC50 (C3aR; [4]): 6.6 nM
Agonist Activity (in words) (C3aR; Table 10, HMDM): partial agonist
IC50 (C3aR; [6]): 20 nM
EC50 (C3aR; [9]): 6.6 nM

N#CN=C(N)NCCC[C@H](NC(=O)c1ccc(C(c2ccccc2)c2ccccc2)s1)C(=O)NS(=O)(=O)c1ccccc1 [Compound 96, (S)-5-benzhydryl-N-(5-(2-cyanoguanidino)-1-oxo-1-(phenylsulfonamido)pentan-2-yl)thiophene-2-carboxamide]
IC50 (C3a receptor (C3aR); [2]): 888 nM
IC50 (C3aR; [10]): 2000 nM

CC(C)C[C@H](NC(=O)OC(C)(C)C)c1nc(C(=O)N[C@@H](CCCNC(=N)N)C(=O)NS(=O)(=O)c2ccccc2)co1 [Compound 92, tert-butyl ((S)-1-(4-(((S)-5-guanidino-1-oxo-1-(phenylsulfonamido)pentan-2-yl)carbamoyl)oxazol-2-yl)-3-methylbutyl)carbamate]
IC50 (C3a receptor (C3aR); [2]): 7.5 nM
IC50 (C3aR; [10]): 1300 nM

Cc1oc([C@H](CC(C)C)NC(=O)c2cc3ccccc3[nH]2)nc1C(=O)N[C@@H](CCCNC(=N)N)C(=O)O [Compound 28, Indole-2-carboxylic acid-Leucine-5-Methyl-Oxazole-Arginine]
remaining activity at 20 µM (C3a receptor (C3aR)): 26%
Emax at 10 µM (C3aR): 56%

CC(C)C[C@H](NC(=O)OC(C)(C)C)c1nc(C(=O)N[C@@H](CCONC(=N)N)C(=O)O)co1 [Compound 91, (S)-2-(2-((S)-1-((tert-butoxycarbonyl)amino)-3-methylbutyl)oxazole-4-carboxamido)-4-(guanidinooxy)butanoic acid]
IC50 (C3a receptor (C3aR); [2]): 93 nM
EC50 (C3aR; [4]): 370 nM

Cc1nc(C(c2ccccc2)c2ccccc2)oc1C(=O)N[C@@H](CCCNC(=N)N)C(=O)O [Compound 58, 2-Diphenylmethyl-4-methyl oxazole-5-carboxyl-Arg-OH]
IC50 (C3a receptor (C3aR); [2]): 606 nM
IC50 (C3a receptor (C3aR); [8]): 603 nM
IC50 (C3a receptor (C3aR); [5]): 12 nM
IC50 (C3a receptor (C3aR); [11]): 606 nM
-Log IC50 (C3a receptor (C3aR); [7]): 7.0
IC50 (C3aR; [6]): 2900 nM
Apparent Agonist Activity pEC50 ± SE (symbol) (C3aR; Table 12): φ (compound showed no agonist activity up to 100 μM.)

Cc1nc(C(c2ccccc2)c2ccccc2)sc1C(=O)N[C@@H](CCCNC(=N)N)C(=O)O [Compound 59, 2-Diphenylmethyl-4-methyl thiazole-5-carboxyl-Arg-OH]
IC50 (C3a receptor (C3aR); [2]): 38 nM
IC50 (C3a receptor (C3aR); [8]): 91.2 nM
IC50 (C3a receptor (C3aR); [5]): 38 nM
IC50 (C3a receptor (C3aR); [11]): 91 nM
IC50 (C3a receptor (C3aR); Table 14, binding affinity for C3aR on HMDM, read-out: -Log IC50 (converted)): 12.6 nM
EC50 (C3aR; [4]): 74800 nM
IC50 (C3aR; [6]): 1000 nM
EC50 (C3aR; [9]): 74800 nM
